Literature values in paper PMC10675597, “Design, Synthesis, and Antisickling Investigation of a Thiazolidine Prodrug of TD-7 That Prolongs the Duration of Action of Antisickling Aromatic Aldehyde” (Pharmaceutics, 2023).

Key:
[1] = set-up: method as in PMID 34657559, PMID 9490025, PMID 10376886, PMID 11154732; settings: cited from earlier work
[2] = set-up: method as in PMID 15180869; settings: cited from earlier work

Row | Structure (SMILES) | oral bioavailability (in words) [1] | oral bioavailability compared to vanillin (in words) [2] | Cmax ([2]; oral, Sprague-Dawley rats) | Cmax, fold greater than vanillin ([2]; oral, Sprague-Dawley rats) | relative bioavailability, fold higher than vanillin ([2]; oral, Sprague-Dawley rats)
1 | O=Cc1ccc(CO)o1 [5-HMF, 5-hydroxymethylfurfural] | low oral bioavailability |  |  |  | 
2 | CCOC(=O)[C@H]1CSC(c2ccc(O)c(OC)c2)N1 (some centres unmarked) [MX-1520] |  | much better oral bioavailability | 9000 ng/mL | 4 fold | 30 fold
3 | CC(C)n1nccc1-c1ncccc1COc1cccc(O)c1C=O [Voxelotor] | satisfactory oral bioavailability |  |  |  | 
4 | COc1cc(C=O)ccc1O [vanillin] | low oral bioavailability |  | 2000 ng/mL |  | 
